Assay results reported in patent US9611252B2 (LifeSci Pharmaceuticals, Inc., priority 2013, dated 2017).

Assays:
human Plasma Kallikrein = human Plasma Kallikrein (Homo sapiens (Human), UniProt P03952); experiment: In vitro enzyme inhibition of human plasma kallikrein (PFR-AMC cleavage); type: biochemical; conditions: human plasma kallikrein, Pro-Phe-Arg-AMC substrate, 37° C.; read-out: hPK IC50
In short: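 Compound pre-incubated with human plasma kallikrein 5 min at 37° C in 50 mM Tris-HCl pH 7.5, 150 mM NaCl, 0.01% Triton X-100. Reaction started with PFR-AMC, cleavage read kinetically at 37° C every 43 s for 1 h.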

kallikrein = kallikrein (Homo sapiens (Human), UniProt P03952); experiment: In vitro cellular assay (contact assay): kallikrein activity in ellagic acid-activated human plasma, substrate Z-FR-2-AMC; type: biochemical; conditions: human plasma activated with ellagic acid, Z-FR-2-AMC substrate, 37° C.; read-out: Contact Assay EC50
kallikrein, sequence (P03952 20-638): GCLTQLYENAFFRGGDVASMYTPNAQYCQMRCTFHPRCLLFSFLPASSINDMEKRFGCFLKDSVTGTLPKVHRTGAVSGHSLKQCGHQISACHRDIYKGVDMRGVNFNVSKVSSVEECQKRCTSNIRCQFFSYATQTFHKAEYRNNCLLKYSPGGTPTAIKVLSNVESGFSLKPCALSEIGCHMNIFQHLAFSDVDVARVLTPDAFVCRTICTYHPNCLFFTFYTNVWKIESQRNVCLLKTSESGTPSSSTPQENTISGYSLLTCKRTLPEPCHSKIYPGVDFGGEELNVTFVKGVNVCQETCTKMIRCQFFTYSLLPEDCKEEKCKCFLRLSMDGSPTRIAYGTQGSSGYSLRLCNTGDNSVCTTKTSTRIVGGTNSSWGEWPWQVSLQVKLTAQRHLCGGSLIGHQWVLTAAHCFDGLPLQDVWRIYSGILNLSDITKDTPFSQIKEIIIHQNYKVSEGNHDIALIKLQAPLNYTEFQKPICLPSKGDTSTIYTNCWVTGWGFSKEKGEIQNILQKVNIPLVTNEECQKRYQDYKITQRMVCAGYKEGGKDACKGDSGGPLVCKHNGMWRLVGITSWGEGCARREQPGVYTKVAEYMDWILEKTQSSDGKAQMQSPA
Description: The ability of the compounds disclosed herein to inhibit cellular kallikrein activity was quantified and the respective EC50 value was determined.
All dilutions were prepared in an assay buffer comprising 50 mM Tris-HCl pH 7.2, 150 mM NaCl, and 0.01% Triton X-100.
The ten solutions of the test compounds, prepared by serial dilution, were further diluted 50-fold in the assay buffer.
Human plasma is thawed on ice and centrifuged for 15 min at 4° C. to remove platelets. A 1 mM stock solution of ellagic acid is diluted to 8 μM and mixed with human plasma, after removing platelets, at a ratio of 1:0.8.
A 22.5 μL volume of the final mixture of human plasma and ellagic acid was added to a 96-well microwell plate and the plate was incubated for 15 min at 37° C.
The CINH inhibitor at various concentrations, prepared by serial dilutions as described above, were added to the inhibitor control wells. […] Each CINH concentration is tested in duplicates.
The test compounds at various concentrations, also prepared by serial dilutions as described above, are added to the test wells. […] Each test compound concentration was tested in duplicates.
In addition to the inhibitor control and test wells, the 96 well assay plate includes positive control wells which contained the mixture of human plasma and ellagic acid without C1NH inhibitor or test compounds, and background wells which contained neither the mixture of human plasma and ellagic acid nor the test compounds. The total volume of liquid in positive control and background wells was brought up to 35 μL, using the assay buffer.
The assay plate containing C1NH inhibitors and test compounds mixed with human plasma and ellagic acid and appropriate controls was incubated at 37° C. for 5 min. […] The reagents were mixed well by shaking the plate gently for 30 sec.
The enzyme reaction was quantified by immediate kinetic reading of the assay plate using excitation/emission wavelengths of 330 nm/440 nm respectively. Fluorescence intensity was recorded for 60 min, using a time interval of 43 sec.
The inhibition activity of the test compounds were evaluated using the IC50 values, calculated according to the dose-response curve of the test compounds, fitted using the “log(inhibitor)-response (variable slope)” equation in GraphPadPrism software (GraphPad Software, Inc.).
The percentage inhibition was calculated using the following equation:
[formula] where, Mean(BG) is the average value of the fluorescence intensity of the background wells and Mean(PC) is the average value of the fluorescence intensity of the positive control wells.
Table 4 provides the EC50 values of various compounds disclosed herein.

human Plasma Kallikrein, sequence (P03952 20-638): as above

Structure (SMILES) | IC50 (human Plasma Kallikrein) [nM] | EC50 (kallikrein) [nM]
Cc1cc(N)nc(C)c1CNC(=O)c1ccnc(Cc2cc(S(C)(=O)=O)c3ncc(Cl)cc3c2)c1 [Example 67, N-((6-amino-2,4-dimethylpyridin-3-yl)methyl)-2-((3-chloro-8-(methylsulfonyl)quinolin-6-yl)methyl)isonicotinamide] | < 100 | < 100
CS(=O)(=O)c1cc(Cc2cc(C(=O)NCc3cc4c(Cl)c[nH]c4cc3F)ccn2)cc2cc(Cl)cnc12 [Example 68, N-((3-chloro-6-fluoro-1H-indol-5-yl)methyl)-2-((3-chloro-8-(methylsulfonyl)quinolin-6-yl)methyl)isonicotinamide] | < 100 | < 100
Cc1nc(N)ccc1CNC(=O)c1ccnc(Cc2cc(S(C)(=O)=O)c3ncc(Cl)cc3c2)c1 [Example 69, N-((6-amino-2-methylpyridin-3-yl)methyl)-2-((3-chloro-8-(methylsulfonyl)quinolin-6-yl)methyl)isonicotinamide] | < 100 | < 100
Cc1cnc2c(C#N)cc(Cc3cc(C(=O)NCc4c(C)cc(N)nc4C)ccn3)cc2c1 [Example 70, N-((6-amino-2,4-dimethylpyridin-3-yl)methyl)-2-((8-cyano-3-methylquinolin-6-yl)methyl)isonicotinamide] | < 100 | < 100
Cc1cnc2c(C#N)cc(Cc3cc(C(=O)NCc4ccc5c(N)nccc5c4)ccn3)cc2c1 [Example 71, N-((1-aminoisoquinolin-6-yl)methyl)-2-((8-cyano-3-methylquinolin-6-yl)methyl)isonicotinamide] | < 100 | < 100
Cc1cnc2c(C#N)cc(Cc3cc(C(=O)NCc4cc5c(Cl)c[nH]c5cc4F)ccn3)cc2c1 [Example 72, N-((3-chloro-6-fluoro-1H-indol-5-yl)methyl)-2-((8-cyano-3-methylquinolin-6-yl)methyl)isonicotinamide] | < 100 | 100 to 1000
Cc1cnc2c(C#N)cc(Cc3cc(C(=O)NCc4cnc5[nH]cc(Cl)c5c4)ccn3)cc2c1 [Example 73, N-((3-chloro-1H-pyrrolo[2,3-b]pyridin-5-yl)methyl)-2-((8-cyano-3-methylquinolin-6-yl)methyl)isonicotinamide] | < 100 | 100 to 1000
Cc1cnc2c(C(N)=O)cc(Cc3cc(C(=O)NCc4c(C)cc(N)nc4C)ccn3)cc2c1 [Example 77, 6-((4-(((6-amino-2,4-dimethylpyridin-3-yl)methyl)carbamoyl)pyridin-2-yl)methyl)-3-methylquinoline-8-carboxamide] | < 100 | < 100
Cc1cnc2c(C(N)=O)cc(Cc3cc(C(=O)NCc4cc5c(Cl)c[nH]c5cc4F)ccn3)cc2c1 [Example 78, 6-((4-(((3-chloro-6-fluoro-1H-indol-5-yl)methyl)carbamoyl)pyridin-2-yl)methyl)-3-methylquinoline-8-carboxamide] | < 100 | < 100
Cc1cnc2c(C(N)=O)cc(Cc3cc(C(=O)NCc4ccc5c(N)nccc5c4)ccn3)cc2c1 [Example 79, 6-((4-(((1-aminoisoquinolin-6-yl)methyl)carbamoyl)pyridin-2-yl)methyl)-3-methylquinoline-8-carboxamide] | < 100 | < 100
Cc1cnc2c(C(N)=O)cc(Cc3cc(C(=O)NCc4cnc5[nH]cc(Cl)c5c4)ccn3)cc2c1 [Example 80, 6-((4-(((3-chloro-1H-pyrrolo[2,3-b]pyridin-5-yl)methyl)carbamoyl)pyridin-2-yl)methyl)-3-methylquinoline-8-carboxamide] | < 100 | < 100
Cc1cnc2c(C(N)=O)cc(Cc3cc(C(=O)NCc4ccc5[nH]cc(Cl)c5c4F)ccn3)cc2c1 [Example 81, 6-((4-(((3-chloro-4-fluoro-1H-indol-5-yl)methyl)carbamoyl)pyridin-2-yl)methyl)-3-methylquinoline-8-carboxamide] | < 100 | 100 to 1000
Cc1cnc2c(C(N)=O)cc(Cc3cc(C(=O)NCc4n[nH]c5ccc(Cl)cc45)ccn3)cc2c1 [Example 82, 6-((4-(((5-chloro-1H-indazol-3-yl)methyl)carbamoyl)pyridin-2-yl)methyl)-3-methylquinoline-8-carboxamide] | < 100 | 100 to 1000
Cc1cnc2c(C(N)=O)cc(Cc3cc(C(=O)NCc4cc5cc[nH]c5cc4F)ccn3)cc2c1 [Example 83, 6-((4-(((6-fluoro-1H-indol-5-yl)methyl)carbamoyl)pyridin-2-yl)methyl)-3-methylquinoline-8-carboxamide] | < 100 | 100 to 1000
Cc1cnc2c(C(=O)O)cc(Cc3cc(C(=O)NCc4c(C)cc(N)nc4C)ccn3)cc2c1 [Example 84, 6-((4-(((6-amino-2,4-dimethylpyridin-3-yl)methyl)carbamoyl)pyridin-2-yl)methyl)-3-methylquinoline-8-carboxylic acid] | < 100 | < 100
Cc1cc(N)nc(C)c1CNC(=O)c1ccnc(Cc2cc(F)c3ncc(Cl)cc3c2)c1 [Example 89, N-(6-amino-2,4-dimethyl-pyridin-3-ylmethyl)-2-(3-chloro-8-fluoro-quinolin-6-ylmethyl)-isonicotinamide] | < 100 | < 100
Cc1nc(N)ccc1CNC(=O)c1ccnc(Cc2cc(F)c3ncc(Cl)cc3c2)c1 [Example 91, N-(6-amino-2-methyl-pyridin-3-ylmethyl)-2-(3-chloro-8-fluoro-quinolin-6-ylmethyl)-isonicotinamide] | < 100 | < 100
Cc1cc(N)nc(C)c1CNC(=O)c1ccnc(Cc2cc(Cl)c3ncc(Cl)cc3c2)c1 [Example 100, N-((6-amino-2,4-dimethylpyridin-3-yl)methyl)-2-((3,8-dichloroquinolin-6-yl)methyl)isonicotinamide] | < 100 | < 100
Cc1ccc2cc(Cc3cc(C(=O)NCc4cc5c(Cl)c[nH]c5cc4F)ccn3)ccc2n1 [Example 110, N-((3-chloro-6-fluoro-1H-indol-5-yl)methyl)-2-((2-methylquinolin-6-yl)methyl)isonicotinamide] | < 100 | 100 to 1000
Cc1ccc2cc(Cc3cc(C(=O)NCc4ccc5c(N)nccc5c4)ccn3)ccc2n1 [Example 111, N-((1-aminoisoquinolin-6-yl)methyl)-2-((2-methylquinolin-6-yl)methyl)isonicotinamide] | < 100 | 100 to 1000
Cc1ccc2cc(Cc3cc(C(=O)NCc4c(C)cc(N)nc4C)ccn3)ccc2n1 [Example 113, N-((6-amino-2,4-dimethylpyridin-3-yl)methyl)-2-((2-methylquinolin-6-yl)methyl)isonicotinamide] | < 100 | < 100
Cc1ccc2ncc(Cc3cc(C(=O)NCc4c(C)cc(N)nc4C)ccn3)cc2c1 [Example 114, N-((6-amino-2,4-dimethylpyridin-3-yl)methyl)-2-((6-methylquinolin-3-yl)methyl)isonicotinamide] | < 100 | < 100
Cc1ccc2ncc(Cc3cc(C(=O)NCc4ccc5c(N)nccc5c4)ccn3)cc2c1 [Example 115, N-((1-aminoisoquinolin-6-yl)methyl)-2-((6-methylquinolin-3-yl)methyl)isonicotinamide] | < 100 | < 100
Cc1ccc2ncc(Cc3cc(C(=O)NCc4cc5c(Cl)c[nH]c5cc4F)ccn3)cc2c1 [Example 116, N-((3-chloro-6-fluoro-1H-indol-5-yl)methyl)-2-((6-methylquinolin-3-yl)methyl) isonicotinamide] | < 100 | 100 to 1000
Cc1ccc2ncc(Cc3cc(C(=O)NCc4ccc(N)nc4C)ccn3)cc2c1 [Example 117, N-((6-amino-2-methylpyridin-3-yl)methyl)-2-((6-methylquinolin-3-yl)methyl)isonicotinamide] | < 100 | 100 to 1000
Nc1nccc2cc(CNC(=O)c3ccnc(Cc4cnc5ccc(F)cc5c4)c3)ccc12 [Example 118, N-((1-aminoisoquinolin-6-yl)methyl)-2-((6-fluoroquinolin-3-yl)methyl)isonicotinamide] | < 100 | < 100
Cc1cc2cc(Cc3cc(C(=O)NCc4ccc5c(N)nccc5c4)ccn3)ccc2cn1 [Example 132, N-((1-aminoisoquinolin-6-yl)methyl)-2-((3-methylisoquinolin-6-yl)methyl)isonicotinamide] | < 100 | 100 to 1000
